The source made the active and inactive calls.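 How the source made its calls: active means over 50% breakup of the Hsp90 and CDC37 protein complex, measured by pull-down and western blot; inactive means complex breakup under 10%.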
Target: Hsp90 co-chaperone Cdc37 (Homo sapiens) (UniProt Q16543)
Test: Hsp90/CDC37 chaperone complex stability in cells – cell-based, chemiluminescence western blot, co-immunoprecipitation, mechanism study for selective HSP90 inhibitor project, late-stage follow-up (AID 687006)
Settings: MCF7 cells, Hsp90 co-IP CDC37 western blot, 24 h, stronger effect = higher value

Chain of Hsp90 co-chaperone Cdc37 (Homo sapiens) (Q16543 whole entry, looked up): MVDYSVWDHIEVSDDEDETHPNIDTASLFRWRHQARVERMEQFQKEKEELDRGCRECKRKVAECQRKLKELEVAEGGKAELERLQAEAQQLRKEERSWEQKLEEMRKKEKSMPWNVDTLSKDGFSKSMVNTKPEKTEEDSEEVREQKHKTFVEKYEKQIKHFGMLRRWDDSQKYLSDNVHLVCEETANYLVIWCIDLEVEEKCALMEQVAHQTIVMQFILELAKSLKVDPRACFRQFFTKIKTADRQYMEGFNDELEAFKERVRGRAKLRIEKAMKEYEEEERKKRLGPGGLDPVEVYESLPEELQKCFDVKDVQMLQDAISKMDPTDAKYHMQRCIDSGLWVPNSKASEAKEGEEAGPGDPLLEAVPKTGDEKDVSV

SMILES: O=C(Nc1ccccc1I)c1coc(=O)c(Br)c1
- complex disruption (high dose (five times the growth IC50) 147 µM, low dose (half the growth IC50) 14.7 µM): < 10% (inactive)

SMILES: Cc1cccc(NC(=O)c2coc(=O)c(Br)c2)n1
- complex disruption (high dose (five times the growth IC50) 136.5 µM, low dose (half the growth IC50) 13.7 µM): < 10% (inactive)

SMILES: CC(NC(=O)c1coc(=O)c(Br)c1)C1C2CCC3CC(C2)CC31 (centres undefined)
- complex disruption (high dose (five times the growth IC50) 9 µM, low dose (half the growth IC50) 0.9 µM): < 10% (inactive)

SMILES: CCCCCCCCOc1ccc(NC(=O)c2coc(=O)c(Br)c2)cc1
- complex disruption (high dose (five times the growth IC50) 64.5 µM, low dose (half the growth IC50) 6.5 µM): > 50%

SMILES: COc1ccc(NC(=O)c2coc(=O)c(Br)c2)cc1
- complex disruption (high dose (five times the growth IC50) 12 µM, low dose (half the growth IC50) 1.2 µM): > 50%

SMILES: O=C(NCc1cccnc1)c1coc(=O)c(Br)c1
- complex disruption (high dose (five times the growth IC50) 17.5 µM, low dose (half the growth IC50) 1.8 µM): < 10% (inactive)

SMILES: CCCCOc1cccc(NC(=O)c2coc(=O)c(Br)c2)c1
- complex disruption (high dose (five times the growth IC50) 114 µM, low dose (half the growth IC50) 11.4 µM): < 10% (inactive)

SMILES: O=C(NCCc1ccc(F)cc1)c1coc(=O)c(Br)c1
- complex disruption (high dose (five times the growth IC50) 10.5 µM, low dose (half the growth IC50) 1.1 µM): < 10% (inactive)

SMILES: O=C(Nc1ccc(F)cc1)c1coc(=O)c(Br)c1
- complex disruption (high dose (five times the growth IC50) 17 µM, low dose (half the growth IC50) 1.7 µM): < 10% (inactive)

SMILES: O=C(NCc1ccco1)c1coc(=O)c(Br)c1
- complex disruption (high dose (five times the growth IC50) 24 µM, low dose (half the growth IC50) 2.4 µM): < 10% (inactive)

SMILES: CC(C)CNC(=O)c1coc(=O)c(Br)c1
- complex disruption (high dose (five times the growth IC50) 37.5 µM, low dose (half the growth IC50) 3.8 µM): > 50%

SMILES: Cc1cc(NC(=O)c2coc(=O)c(Br)c2)ccc1C(C)C
- complex disruption (high dose (five times the growth IC50) 44.5 µM, low dose (half the growth IC50) 4.5 µM): < 10% (inactive)

SMILES: COc1ccc(NC(=O)c2ccc(NC(=O)c3coc(=O)c(Br)c3)cc2)cc1
- complex disruption (high dose (five times the growth IC50) 60.5 µM, low dose (half the growth IC50) 6.1 µM): > 50%

SMILES: CC(=O)c1ccc(NC(=O)c2coc(=O)c(Br)c2)cc1
- complex disruption (high dose (five times the growth IC50) 53.5 µM, low dose (half the growth IC50) 5.4 µM): > 50%
